Source: patent publication US5422341A, “Motilin-like polypeptides with gastrointestinal motor stimulating activity” (Ohmeda Pharmaceutical Products Division Inc., priority 1993, dated 1995)
“And” between values parts separate entries of the source, which are not always exact repeats. Equal entries are not always repeated. Structures can show the parent of a compound that is named as a salt. Square brackets hold non-standard residues; d marks the D form. Peptide text beside a SMILES is read from it. * marks the point of attachment. X3 = C#CC[N+](C)(C)[C@@H](Cc1ccccc1)C(=O)*; X5 = C=CC[N+](C)(C)[C@@H](Cc1ccccc1)C(=O)*; X1 = C[N+](C)(C)[C@@H](Cc1ccccc1)C(=O)*; X2 = C#CCN(C)[C@@H](Cc1ccccc1)C(=O)*; Cha = N[C@@H](CC1CCCCC1)C(=O)O

What was measured:
motilin receptor = biological target: T1, motilin receptor (Oryctolagus cuniculus, UniProt G1T803); test: Determination of motilin receptor binding affinity (displacement of [125I-Tyr7, Nle13]motilin(porcine)); design: species or system rabbit; conditions: negative logarithm of the concentration displacing 50% of [125I-Tyr7, Nle13]motilin(porcine) from rabbit antral smooth muscle membranes; read-out: pIC50 (converted)
T1 construct: from tissue; host or cells: rabbit antral smooth muscle membranes
T1 sequence (G1T803 1-400): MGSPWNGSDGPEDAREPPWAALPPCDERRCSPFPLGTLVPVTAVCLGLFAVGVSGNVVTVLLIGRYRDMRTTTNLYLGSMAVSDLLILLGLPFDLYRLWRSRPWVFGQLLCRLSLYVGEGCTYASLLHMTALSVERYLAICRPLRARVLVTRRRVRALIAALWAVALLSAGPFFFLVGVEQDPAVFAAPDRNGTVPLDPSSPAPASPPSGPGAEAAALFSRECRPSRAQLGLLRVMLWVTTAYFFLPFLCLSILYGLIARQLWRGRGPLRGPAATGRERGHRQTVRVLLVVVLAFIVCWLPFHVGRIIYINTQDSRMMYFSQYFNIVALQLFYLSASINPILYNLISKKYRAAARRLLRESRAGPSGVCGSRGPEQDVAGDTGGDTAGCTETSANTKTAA
Description: The motilin receptor binding affinity of the peptides of this invention was determined by using the general procedure of Bormans, Peelers and Vantrappen, Regul. […] Fitting was performed using the iterative least-squares procedure of the SAS-software package (SAS Institute, Inc., Cary, N.C., USA).

[1] = biological target: segments of rabbit duodenum (Oryctolagus cuniculus, UniProt G1T803); test: Rabbit duodenal smooth muscle strip tissue bath assay; format: cell-based; conditions: negative logarithm of the dose giving 50% of the maximal response to motilin; isotonic contraction of rabbit duodenum segments
Chain of segments of rabbit duodenum (G1T803 1-400): as above
Description: The contractile response of segments of rabbit duodenum was determined isotonically in the tissue bath according to the procedure of Depoortere et at., J. Gastrointestinal Motility, 1, 150-159 (1989). The experimental protocol consisted of an equilibration period of 1 hour; a challenge with 10^-4 M acetylcholine followed by a wash-out period; a cumulative dose-response curve of a compound with, at the end, the addition of 10^-7 M motilin; and finally 10^-4 M acetylcholine. If the final response to 10^-4 M acetylcholine differed by more than 5% from the initial response, the results were discarded. The compounds were tested in the concentration range 10^-11 to 10^-4 M. The point corresponding to 50% of the maximal response to motilin (Emax) was determined by fitting the equation E=Emax (1+EC50 /[L]) through the data points. […] The dose giving 50% of the response is expressed using its negative logarithm (pEC50).

SMILES	IC50 (motilin receptor)	pEC50 [1]
CC[C@H](C)[C@H](NC(=O)[C@@H]1CCCN1C(=O)[C@@H](NC(=O)[C@H](Cc1ccccc1)[N+](C)(C)C)C(C)C)C(=O)N[C@@H](Cc1ccccc1)C(=O)N[C@H](C(=O)N[C@@H](Cc1ccc(O)cc1)C(=O)NCC(=O)N[C@@H](CCC(=O)O)C(=O)N[C@@H](CC(C)C)C(=O)N[C@@H](C)C(=O)N[C@H](CCCNC(=N)N)C(=O)N[C@@H](CC(C)C)C(=O)N[C@H](CCC(N)=O)C(N)=O)[C@@H](C)O (X1-VPIFTYGELA[dR]L[dQ]-NH2)	2.45 nM	7.25
CC[C@H](C)[C@H](NC(=O)[C@@H]1CCCN1C(=O)[C@@H](NC(=O)[C@H](Cc1ccccc1)[N+](C)(C)C)C(C)C)C(=O)N[C@@H](Cc1ccccc1)C(=O)N[C@H](C(=O)N[C@@H](Cc1ccc(O)cc1)C(=O)NCC(=O)N[C@@H](CCC(=O)O)C(=O)N[C@@H](CC(C)C)C(=O)N[C@@H](CCC(N)=O)C(=O)N[C@@H](CCCNC(=N)N)C(=O)N[C@@H](CC(C)C)C(=O)N[C@@H](CCC(N)=O)C(N)=O)[C@@H](C)O (X1-VPIFTYGELQRLQ-NH2)	2.69 nM	7.48
CC[C@H](C)[C@H](NC(=O)[C@@H]1CCCN1C(=O)[C@@H](NC(=O)[C@H](Cc1ccccc1)[N+](C)(C)C)C(C)C)C(=O)N[C@@H](Cc1ccccc1)C(=O)N[C@H](C(=O)N[C@@H](Cc1ccc(O)cc1)C(=O)NCC(=O)N[C@@H](CCC(=O)O)C(=O)N[C@@H](CC(C)C)C(=O)N[C@@H](CCC(N)=O)C(=O)N[C@H](CCCNC(=N)N)C(=O)N[C@@H](CC(C)C)C(=O)N[C@@H](CCC(N)=O)C(=O)O)[C@@H](C)O (X1-VPIFTYGELQ[dR]LQ-OH)	3.55 nM and 2.14 nM	7.52
C#CCN(C)[C@@H](Cc1ccccc1)C(=O)N[C@H](C(=O)N1CCC[C@H]1C(=O)N[C@H](C(=O)N[C@@H](Cc1ccccc1)C(=O)N[C@H](C(=O)N[C@@H](Cc1ccc(O)cc1)C(=O)NCC(=O)N[C@@H](CCC(=O)O)C(=O)N[C@@H](CC(C)C)C(=O)N[C@@H](CCC(N)=O)C(=O)N[C@@H](CCCNC(=N)N)C(=O)N[C@@H](CC(C)C)C(=O)N[C@@H](CCC(N)=O)C(N)=O)[C@@H](C)O)[C@@H](C)CC)C(C)C (X2-VPIFTYGELQRLQ-NH2)	2 nM	7.57
C#CC[N+](C)(C)[C@@H](Cc1ccccc1)C(=O)N[C@H](C(=O)N1CCC[C@H]1C(=O)N[C@H](C(=O)N[C@@H](Cc1ccccc1)C(=O)N[C@H](C(=O)N[C@@H](Cc1ccc(O)cc1)C(=O)NCC(=O)N[C@@H](CCC(=O)O)C(=O)N[C@@H](CC(C)C)C(=O)N[C@@H](CCC(N)=O)C(=O)N[C@@H](CCCNC(=N)N)C(=O)N[C@@H](CC(C)C)C(=O)N[C@@H](CCC(N)=O)C(N)=O)[C@@H](C)O)[C@@H](C)CC)C(C)C (X3-VPIFTYGELQRLQ-NH2)	2.14 nM	7.65
C=CC[N+](C)(C)[C@@H](Cc1ccccc1)C(=O)N[C@H](C(=O)N1CCC[C@H]1C(=O)N[C@H](C(=O)N[C@@H](Cc1ccccc1)C(=O)N[C@H](C(=O)N[C@@H](Cc1ccc(O)cc1)C(=O)NCC(=O)N[C@@H](CCC(=O)O)C(=O)N[C@@H](CC(C)C)C(=O)N[C@@H](CCC(N)=O)C(=O)N[C@@H](CCCNC(=N)N)C(=O)N[C@@H](CC(C)C)C(=O)N[C@@H](CCC(N)=O)C(N)=O)[C@@H](C)O)[C@@H](C)CC)C(C)C (X5-VPIFTYGELQRLQ-NH2)	1.74 nM	7.47
CC[C@H](C)[C@H](NC(=O)[C@@H]1CCCN1C(=O)[C@@H](NC(=O)[C@@H](N)Cc1ccccc1)C(C)C)C(=O)N[C@@H](CC1CCCCC1)C(=O)N[C@H](C(=O)N[C@@H](Cc1ccc(O)cc1)C(=O)NCC(=O)N[C@@H](CCC(=O)O)C(=O)N[C@@H](CC(C)C)C(=O)N[C@@H](CCC(N)=O)C(=O)N[C@H](CCCNC(=N)N)C(=O)N[C@@H](CC(C)C)C(=O)N[C@@H](CCC(N)=O)C(N)=O)[C@@H](C)O [H-Phe-Val-Pro-Ile-Cha-Thr-Tyr-Gly-Glu-Leu-Gln-D-Arg-Leu-Gln-NH2] (H-FVPI[Cha]TYGELQ[dR]LQ-NH2)	6.76 nM	7.30
CC[C@H](C)[C@H](NC(=O)[C@H](C)NC(=O)[C@@H](NC(=O)[C@@H](N)Cc1ccccc1)C(C)C)C(=O)N[C@@H](Cc1ccccc1)C(=O)N[C@H](C(=O)N[C@@H](Cc1ccc(O)cc1)C(=O)NCC(=O)N[C@@H](CCC(=O)O)C(=O)N[C@@H](CC(C)C)C(=O)N[C@@H](CCC(N)=O)C(=O)N[C@H](CCCNC(=N)N)C(=O)N[C@@H](CC(C)C)C(=O)N[C@@H](CCC(N)=O)C(=O)O)[C@@H](C)O [[Ala^3, D-Arg^ 12, Leu^13]pMOT(1-14)] (H-FVAIFTYGELQ[dR]LQ-OH)	2.14 nM	7.71
CC[C@H](C)[C@H](NC(=O)[C@@H]1CCCN1C(=O)[C@@H](NC(=O)[C@@H](N)Cc1ccccc1)C(C)C)C(=O)N[C@@H](Cc1ccccc1)C(=O)N[C@H](C(=O)N[C@@H](Cc1ccc(O)cc1)C(=O)NCC(=O)N[C@@H](CCC(=O)O)C(=O)N[C@@H](CC(C)C)C(=O)N[C@@H](C)C(=O)N[C@H](CCCNC(=N)N)C(=O)N[C@@H](CC(C)C)C(=O)N[C@@H](CCC(N)=O)C(=O)O)[C@@H](C)O [[Ala^11, D-Arg^12, Leu^13]pMOT(1-14)] (H-FVPIFTYGELA[dR]LQ-OH)	1.66 nM	7.63
CC[C@H](C)[C@H](NC(=O)[C@@H]1CCCN1C(=O)[C@@H](NC(=O)[C@@H](N)CC1CCCCC1)C(C)C)C(=O)N[C@@H](Cc1ccccc1)C(=O)N[C@H](C(=O)N[C@@H](Cc1ccc(O)cc1)C(=O)NCC(=O)N[C@@H](CCC(=O)O)C(=O)N[C@@H](CC(C)C)C(=O)N[C@@H](CCC(N)=O)C(=O)N[C@H](CCCNC(=N)N)C(=O)N[C@@H](CC(C)C)C(=O)N[C@@H](CCC(N)=O)C(=O)O)[C@@H](C)O [[Cha^1, D-Arg^12, Leu^13]pMOT(1-14)] (H-[Cha]VPIFTYGELQ[dR]LQ-OH)	1.78 nM	7.60
CC[C@H](C)[C@H](NC(=O)[C@@H]1CCCN1C(=O)[C@@H](NC(=O)[C@@H](N)Cc1ccccc1)C(C)C)C(=O)N[C@@H](Cc1ccccc1)C(=O)N[C@H](C(=O)N[C@@H](Cc1ccc(O)cc1)C(=O)N[C@H](C)C(=O)N[C@@H](CCC(=O)O)C(=O)N[C@@H](CC(C)C)C(=O)N[C@@H](CCC(N)=O)C(=O)N[C@H](CCCNC(=N)N)C(=O)N[C@@H](CC(C)C)C(=O)N[C@@H](CCC(N)=O)C(=O)O)[C@@H](C)O [[D-Ala^8, D-Arg^12, Leu^13]pMOT(1-14), H-Phe-Val-Pro-Ile-Phe-Thr-Tyr-D-Ala-Glu-Leu-Gln-D-Arg-Leu-Gln-OH] (H-FVPIFTY[dA]ELQ[dR]LQ-OH)	6.03 nM	7.09
CC[C@H](C)[C@H](NC(=O)[C@@H]1CCCN1C(=O)[C@@H](NC(=O)[C@@H](N)Cc1ccccc1)C(C)C)C(=O)N[C@@H](Cc1ccccc1)C(=O)N[C@H](C(=O)N[C@@H](Cc1ccc(O)cc1)C(=O)NCC(=O)N[C@@H](CCC(=O)O)C(=O)N[C@@H](CC(C)C)C(=O)N[C@@H](CCC(N)=O)C(=O)N[C@H](C)C(=O)N[C@@H](CC(C)C)C(=O)N[C@@H](CCC(N)=O)C(=O)O)[C@@H](C)O [[D-Ala^12, Leu^13]pMOT(1-14)] (H-FVPIFTYGELQ[dA]LQ-OH)	8.91 nM	7.29
CC[C@H](C)[C@H](NC(=O)[C@@H]1CCCN1C(=O)[C@@H](NC(=O)[C@@H](N)Cc1ccccc1)C(C)C)C(=O)N[C@@H](Cc1ccccc1)C(=O)N[C@H](C(=O)N[C@@H](Cc1ccc(O)cc1)C(=O)NCC(=O)N[C@@H](CCC(=O)O)C(=O)N[C@@H](CC(C)C)C(=O)N[C@@H](CCC(N)=O)C(=O)N[C@H](CCCNC(=N)N)C(=O)N[C@@H](CC(C)C)C(=O)N[C@@H](CCC(N)=O)C(=O)N[C@@H](CCC(=O)O)C(=O)N[C@@H](CCCCN)C(=O)N[C@@H](CCC(=O)O)C(=O)N[C@@H](CCCNC(=N)N)C(=O)N[C@@H](CC(N)=O)C(=O)N[C@@H](CCCCN)C(=O)NCC(=O)N[C@@H](CCC(N)=O)C(=O)O)[C@@H](C)O [[D-Arg^12, Leu^13]pMOT(1-22)]	1.66 nM	7.67
CC[C@H](C)[C@H](NC(=O)[C@@H]1CCCN1C(=O)[C@@H](NC(=O)[C@@H](N)Cc1ccccc1)C(C)C)C(=O)N[C@@H](Cc1ccccc1)C(=O)N[C@H](C(=O)N[C@@H](Cc1ccc(O)cc1)C(=O)NCC(=O)N[C@@H](CCC(=O)O)C(=O)N[C@@H](CC(C)C)C(=O)N[C@@H](CCC(N)=O)C(=O)N[C@H](CCCNC(=N)N)C(=O)N[C@@H](CC(C)C)C(=O)N[C@@H](CCC(N)=O)C(N)=O)[C@@H](C)O [[D-Arg^13, Leu^13]pMOT(1-14) amide] (H-FVPIFTYGELQ[dR]LQ-NH2)	2.45 nM	7.50
CC[C@H](C)[C@H](NC(=O)[C@@H]1CCCN1C(=O)[C@@H](NC(=O)[C@@H](N)Cc1ccccc1)C(C)C)C(=O)N[C@@H](Cc1ccccc1)C(=O)N[C@H](C(=O)N[C@@H](Cc1ccc(O)cc1)C(=O)NCC(=O)N[C@@H](CCC(=O)O)C(=O)N[C@@H](CC(C)C)C(=O)N[C@@H](CCC(N)=O)C(=O)N[C@H](CCCNC(=N)N)C(=O)N[C@@H](CC(C)C)C(=O)N[C@@H](CCC(N)=O)C(=O)O)[C@@H](C)O [[D-Arg^13, Leu^13]pMOT(1-14), [12-D-Arginine, 13-leucine]motilin-(1-14)-peptide (Porcine) Bis-trifiuoroacetate Salt] (H-FVPIFTYGELQ[dR]LQ-OH)	0.977 nM	7.74
